Laboratory results taken from patent publication US6914045B2, “Glycopeptide antibiotics” (Wyeth Holdings Corporation, priority 2001, dated 2005).
In brackets after ≈: the same amount, converted by molar mass.

Columns and labels:
[1] = system: Streptococcus sp.; assay: in vitro antibacterial evaluation, MIC by broth dilution; type: cell-based; details: broth dilution, 18 hours at 35° C.
How it was run: (§1)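 Broth dilution per NCCLS standard M7-A2 in Muller-Hinton II […], with an inoculum of 5×10^5 CFU/mL and antibiotic spanning 64-0.06 μg/mL. The MIC is the lowest concentration that inhibits growth of the organism.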

[2] = system: Escherichia coli; assay: as above; type: cell-based; details: 18 hours at 35° C.
How it was run: as §1

[3] = system: Staphylococcus sp.; assay: as above; type: cell-based; details: broth dilution, 18 hours at 35° C.
How it was run: as §1

[4] = system: Enterococcus sp.; assay: as above; type: cell-based; details: broth dilution, 18 hours at 35° C.
How it was run: as §1

[5] = system: Enterococcus faecalis (GC 6189); assay: acute lethal infection in mice; type: in vivo; details: female CD-1 mice, intraperitoneal challenge, intravenous 30 min. after infection, 7 day survival
How it was run: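 ED50 from 7 day survival ratios pooled over 3 separate tests. Female CD-1 mice, 20+/−2 gm, ip bacterial challenge (trypticase soy broth or hog gastric mucin) lethal to untreated controls in 24-48 hr; iv dosing 30 min after infection in saline or 5% dextrose, n=5/dose.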

CC(c1ccccc1)C1NC(=O)CNC(=O)C(CO)NC(=O)C(C(O)C2CNC(=N)N2C2OC(CO)C(O)C(O)C2O)NC(=O)C(C(O)C2CNC(=N)N2)NC(=O)C(Cc2ccc(OC3OC(CO)C(OC4OC5COC(C6CCCC6)OC5C(O)C4O)C(O)C3O)cc2)NC1=O (stereo not drawn) [Example 117, Cyclo[glycyl-β-methylphenylalanyl-O-[4-O-[4,6-O-(cyclopentylmethylene)hexopyranosyl]-hexopyranosyl]tyrosyl-3-(2-iminoiniidazolidin-4-yl)seryl-3-(3-hexopyranosyl-2-iminoimidazolidin-4-yl)serylseryl]]
MIC Streptococcus agalactiae (GC 4564) ([1]; Streptococcus agalactiae (GC 4564)): 0.25 µg/mL (≈ 0.182 µM) | MIC Streptococcus pneumoniae (ATCC 6301) ([1]; Streptococcus pneumoniae (ATCC 6301)): <0.06 µg/mL | MIC Streptococcus pneumoniae (GC 1894) ([1]; Streptococcus pneumoniae (GC 1894)): <0.06 µg/mL | MIC Streptococcus pneumoniae (GC 4565) ([1]; Streptococcus pneumoniae (GC 4565)): 0.12 µg/mL (≈ 0.0872 µM) | MIC Streptococcus pyogenes (GC 4563) ([1]; Streptococcus pyogenes (GC 4563)): 0.25 µg/mL (≈ 0.182 µM) | MIC Streptococcus pneumoniae (ATCC 6301) ([1]; strain ATCC 6301): <0.06 µg/mL | MIC Streptococcus pneumoniae (GC 1894) ([1]; strain GC 1894): <0.06 µg/mL | MIC Streptococcus pyogenes (GC 4563) ([1]; strain GC 4563): 0.25 µg/mL (≈ 0.182 µM) | MIC Streptococcus agalactiae (GC 4564) ([1]; strain GC 4564): 0.25 µg/mL (≈ 0.182 µM) | MIC Streptococcus pneumoniae (GC 4565) ([1]; strain GC 4565): 0.12 µg/mL (≈ 0.0872 µM) | MIC Escherichia coli (ATCC 25922) ([2]; strain ATCC 25922): 64 µg/mL (≈ 46.5 µM) | MIC Escherichia coli (GC 4559) ([2]; strain GC 4559): 32 µg/mL (≈ 23.3 µM) | MIC Escherichia coli (GC 4560) ([2]; strain GC 4560): 1 µg/mL (≈ 0.727 µM) | MIC Coagulase Negative Staphylococcus (GC 4547) [3]: 1 µg/mL (≈ 0.727 µM) | MIC Coagulase Negative Staphylococcus (GC 4548) [3]: 1 µg/mL (≈ 0.727 µM) | MIC Coagulase Negative Staphylococcus (GC 4549) [3]: 1 µg/mL (≈ 0.727 µM) | MIC Coagulase Negative Staphylococcus (GC 4551) [3]: 2 µg/mL (≈ 1.45 µM) | MIC Coagulase Negative Staphylococcus (GC 6257) [3]: 0.5 µg/mL (≈ 0.364 µM) | MIC Staphylococcus aureus (ATCC 29213) [3]: 1 µg/mL (≈ 0.727 µM) | MIC Staphylococcus aureus (GC 1131) [3]: 2 µg/mL (≈ 1.45 µM) | MIC Staphylococcus aureus (GC 3051) [3]: 1 µg/mL (≈ 0.727 µM) | MIC Staphylococcus aureus (GC 3053) [3]: 2 µg/mL (≈ 1.45 µM) | MIC Staphylococcus aureus (GC 4541) [3]: 1 µg/mL (≈ 0.727 µM) | MIC Staphylococcus aureus (GC 4542) [3]: 1 µg/mL (≈ 0.727 µM) | MIC Staphylococcus aureus (GC 4544) [3]: 2 µg/mL (≈ 1.45 µM) | MIC Staphylococcus aureus (GC 4545) [3]: 1 µg/mL (≈ 0.727 µM) | MIC Staphylococcus aureus-SMITH (GC 4543) [3]: 1 µg/mL (≈ 0.727 µM) | MIC Staphylococcus haemolyticus (GC 4546) [3]: 1 µg/mL (≈ 0.727 µM) | MIC Staphylococcus aureus (GC 1131) ([3]; inoculum 5×10^5 CFU/mL, strain GC 1131): 2 µg/mL (≈ 1.45 µM) | MIC Staphylococcus aureus (ATCC 29213) ([3]; strain ATCC 29213): 1 µg/mL (≈ 0.727 µM) | MIC Staphylococcus aureus (GC 3051) ([3]; strain GC 3051): 1 µg/mL (≈ 0.727 µM) | MIC Staphylococcus aureus (GC 3053) ([3]; strain GC 3053): 2 µg/mL (≈ 1.45 µM) | MIC Staphylococcus aureus (GC 4541) ([3]; strain GC 4541): 1 µg/mL (≈ 0.727 µM) | MIC Staphylococcus aureus (GC 4542) ([3]; strain GC 4542): 1 µg/mL (≈ 0.727 µM) | MIC Staphylococcus aureus (GC 4544) ([3]; strain GC 4544): 2 µg/mL (≈ 1.45 µM) | MIC Staphylococcus aureus (GC 4545) ([3]; strain GC 4545): 1 µg/mL (≈ 0.727 µM) | MIC Staphylococcus haemolyticus (GC 4546) ([3]; strain GC 4546): 1 µg/mL (≈ 0.727 µM) | MIC Coagulase Negative Staphylococcus (GC 4547) ([3]; strain GC 4547): 1 µg/mL (≈ 0.727 µM) | MIC Coagulase Negative Staphylococcus (GC 4548) ([3]; strain GC 4548): 1 µg/mL (≈ 0.727 µM) | MIC Coagulase Negative Staphylococcus (GC 4549) ([3]; strain GC 4549): 1 µg/mL (≈ 0.727 µM) | MIC Coagulase Negative Staphylococcus (GC 4551) ([3]; strain GC 4551): 2 µg/mL (≈ 1.45 µM) | MIC Coagulase Negative Staphylococcus (GC 6257) ([3]; strain GC 6257): 0.5 µg/mL (≈ 0.364 µM) | MIC Staphylococcus aureus-SMITH (GC 4543) ([3]; strain SMITH GC 4543): 1 µg/mL (≈ 0.727 µM) | MIC Enterococcus avium (GC 4558) ([4]; Enterococcus avium (GC 4558)): 4 µg/mL (≈ 2.91 µM) | MIC Enterococcus faecalis (ATCC 29212) ([4]; Enterococcus faecalis (ATCC 29212)): 2 µg/mL (≈ 1.45 µM) | MIC Enterococcus faecalis (GC 2242) ([4]; Enterococcus faecalis (GC 2242)): 2 µg/mL (≈ 1.45 µM) | MIC Enterococcus faecalis (GC 2691) ([4]; Enterococcus faecalis (GC 2691)): 4 µg/mL (≈ 2.91 µM) | MIC Enterococcus faecalis (GC 3059) ([4]; Enterococcus faecalis (GC 3059)): 4 µg/mL (≈ 2.91 µM) | MIC Enterococcus faecalis (GC 4552) ([4]; Enterococcus faecalis (GC 4552)): 4 µg/mL (≈ 2.91 µM) | MIC Enterococcus faecalis (GC 4553) ([4]; Enterococcus faecalis (GC 4553)): 4 µg/mL (≈ 2.91 µM) | MIC Enterococcus faecalis (GC 4554) ([4]; Enterococcus faecalis (GC 4554)): 2 µg/mL (≈ 1.45 µM) | MIC Enterococcus faecalis (GC 6189) ([4]; Enterococcus faecalis (GC 6189)): 2 µg/mL (≈ 1.45 µM) | MIC Enterococcus faecium (GC 2243) ([4]; Enterococcus faecium (GC 2243)): 2 µg/mL (≈ 1.45 µM) | MIC Enterococcus faecium (GC 4556) ([4]; Enterococcus faecium (GC 4556)): 2 µg/mL (≈ 1.45 µM) | MIC Enterococcus faecium (GC 4557) ([4]; Enterococcus faecium (GC 4557)): 2 µg/mL (≈ 1.45 µM) | MIC Enterococcus faecalis (ATCC 29212) ([4]; strain ATCC 29212): 2 µg/mL (≈ 1.45 µM) | MIC Enterococcus faecalis (GC 2242) ([4]; strain GC 2242): 2 µg/mL (≈ 1.45 µM) | MIC Enterococcus faecium (GC 2243) ([4]; strain GC 2243): 2 µg/mL (≈ 1.45 µM) | MIC Enterococcus faecalis (GC 2691) ([4]; strain GC 2691): 4 µg/mL (≈ 2.91 µM) | MIC Enterococcus faecalis (GC 3059) ([4]; strain GC 3059): 4 µg/mL (≈ 2.91 µM) | MIC Enterococcus faecalis (GC 4552) ([4]; strain GC 4552): 4 µg/mL (≈ 2.91 µM) | MIC Enterococcus faecalis (GC 4553) ([4]; strain GC 4553): 4 µg/mL (≈ 2.91 µM) | MIC Enterococcus faecalis (GC 4554) ([4]; strain GC 4554): 2 µg/mL (≈ 1.45 µM) | MIC Enterococcus faecium (GC 4556) ([4]; strain GC 4556): 2 µg/mL (≈ 1.45 µM) | MIC Enterococcus faecium (GC 4557) ([4]; strain GC 4557): 2 µg/mL (≈ 1.45 µM) | MIC Enterococcus avium (GC 4558) ([4]; strain GC 4558): 4 µg/mL (≈ 2.91 µM) | MIC Enterococcus faecalis (GC 6189) ([4]; strain GC 6189): 2 µg/mL (≈ 1.45 µM) | median effective dose (ED50), Enterococcus faecalis (GC 6189) [5]: 0.38 mg/kg
